From ChEMBL document CHEMBL1123114, “Structure-activity relationships of arylimidazopyridine cardiotonics: discovery and inotropic activity of 2-[2-methoxy-4-(methylsulfinyl)phenyl]-1H-imidazo[4,5-c]pyridine” (1985)

What was measured:
Felis catus [1] = organism: Felis catus; assay: Response ratio = (percent increase to drug)/(percent increase to 10 E-5 M isoproterenol); format: functional
Felis catus [2] = organism: Felis catus; assay: Response ratio = (percent increase to drug)/(percent increase to 10 E-4 M isoproterenol); format: functional
Felis catus [3] = organism: Felis catus; assay: Compound tested for contractility in isolated cat papillary muscle at 10 e-5 M.; format: functional
Felis catus [4] = organism: Felis catus; assay: Compound tested for contractility in isolated cat papillary muscle at 10 e-4 M.; format: functional
Canis familiaris [5] = assay: Percent change in mean arterial blood pressure in anesthetized dog; format: functional, Canis lupus familiaris
Canis familiaris [6] = assay: Compound tested for contractility in anesthetized dog when administered intravenously.; format: functional; details: Canis lupus familiaris, iv
Canis familiaris [7] = assay: Percent change in heart rate in anesthetized dog; format: functional, Canis lupus familiaris

SMILES	Response ratio (Felis catus [1])	Response ratio (Felis catus [2])	Control (Felis catus [3]) [%]	Control (Felis catus [4]) [%]	Change (Canis familiaris [5]) [%]	ED50 (Canis familiaris [6]) [mg/kg]	Change (Canis familiaris [7]) [%]
COc1ccc(-c2nc3cc[nH]cc-3n2)c([S+](C)[O-])c1 (stereo unspecified)	0.1	0.22	107	116			
Clc1cc(Cl)cc(-c2nc3cc[nH]cc-3n2)c1	0.21	0.64	115	146			
Fc1ccc(-c2nc3cc[nH]cc-3n2)cc1	0.06	0.87	105	163			
CCCCOc1cc(OC)ccc1-c1nc2cc[nH]cc-2n1	0	0.55	100	140			
c1ccc(-c2nc3cc[nH]cc-3n2)cc1	0.08	1.97	106	242	-15	2.5	13
COc1cc(SC)ccc1-c1nc2cc[nH]cc-2n1	0.6	0.59	143	142	-17	0.2	9
COc1ccc(-c2nc3c[nH]cnc-3n2)c(OC)c1	0.24	1.59	117	215	-15	0.3	7
COc1ccc(-c2nc3cc[nH]cc-3n2)c(OCCSc2ccccc2)c1	0.04	0.12	103	109			
Cc1cccc(-c2nc3ccc[nH]c-3n2)c1					-27	2.8	18
CCCOc1cc([S+](C)[O-])ccc1-c1nc2cc[nH]cc-2n1 (stereo unspecified)	0.3	0.82	122	159	-33	1	10
CCOc1cc(S(C)(=O)=O)ccc1-c1nc2cc[nH]cc-2n1	0.51	1.36	137	198	-11	0.07	7
COc1ccc(-c2nc3ccc[nH]c-3n2)c(OC)c1	1	2.27	172	264	-22	0.8	18
c1ccc(Sc2ccc(-c3nc4cc[nH]cc-4n3)cc2)cc1	0.31	0.33	122	124			
Fc1ccccc1-c1nc2cc[nH]cc-2n1	0.1	0.63	107	145			
CCSc1ccc(-c2nc3cc[nH]cc-3n2)c(OC)c1	0.5	1.33	136	196			
CCOc1cc(SC)ccc1-c1nc2cc[nH]cc-2n1	0.3	0.68	122	149			
COCCOc1cc(OC)ccc1-c1nc2cc[nH]cc-2n1	0.12	0.22	109	116			
COc1cc(OS(C)(=O)=O)ccc1-c1nc2cc[nH]cc-2n1	1.94	3.13	240	326	-25	0.006	17
COc1cc(F)ccc1-c1nc2cc[nH]cc-2n1	0.28	0.58	120	142			
CCCOc1cc(OC)ccc1-c1nc2cc[nH]cc-2n1	0.47	3.27	134	336	-59	1.3	-7
COc1ccc(OC)c(-c2nc3cc[nH]cc-3n2)c1	0.14	0.96	110	169			
CCOc1cc(OC)ccc1-c1nc2cc[nH]cc-2n1	0.11	0.41	108	130			
CSc1ccc(-c2nc3ccc[nH]c-3n2)cc1					-7	1.9	27
CSc1ccc(-c2nc3cc[nH]cc-3n2)c(SC)c1	0.18	0.84	113	161			
CCCCCOc1cc(OC)ccc1-c1nc2cc[nH]cc-2n1	0.07	-0.26	105	81			
COCCCOc1cc(OC)ccc1-c1nc2cc[nH]cc-2n1	-0.01	0.65	99	147			
COc1cc(N(C)C)ccc1-c1nc2cc[nH]cc-2n1	0.03	0.9	102	165			

SMILES	Response ratio (Felis catus [1])	Response ratio (Felis catus [2])	Control (Felis catus [3]) [%]	Control (Felis catus [4]) [%]	Change (Canis familiaris [5]) [%]	ED50 (Canis familiaris [6]) [mg/kg]	Change (Canis familiaris [7]) [%]
COc1cc(-c2nc3cc[nH]cc-3n2)cc(OC)c1OC	0.12	0.71	109	151			
CCCSc1ccc(-c2nc3cc[nH]cc-3n2)c(OC)c1	0.35	0.54	125	139			
COc1ccc(-c2nc3cc[nH]cc-3n2)c(SC)c1	0.19	1.44	114	204			
CCCOc1cc(SC)ccc1-c1nc2cc[nH]cc-2n1					-62	1.2	-3
COc1ccc(-c2nc3ccc[nH]c-3n2)cc1OC	0.04	0.22	103	116.5			
COc1cc(I)ccc1-c1nc2cc[nH]cc-2n1	0.54	0.82	139	159			
COc1ccc(-c2nc3cc[nH]cc-3n2)c(C)c1	0.26	0.63	119	145			
CC[S+]([O-])c1ccc(-c2nc3cc[nH]cc-3n2)c(OC)c1 (stereo unspecified)	0.5	1	136	170			
CS(=O)(=O)c1ccc(-c2nc3ccc[nH]c-3n2)cc1					-2	18	8
COc1cc(SC)ccc1-c1nc2c[nH]cnc-2n1	0.12	0.43	109	131			
Fc1cccc(-c2nc3cc[nH]cc-3n2)c1	0.17	0.79	112	157			
COc1cccc(OC)c1-c1nc2cc[nH]cc-2n1	-0.31	1.16	78	184			
COc1cc(OC)c(-c2nc3cc[nH]cc-3n2)c(OC)c1	0.04	0.51	103	137			
COc1c(C)cc(-c2nc3cc[nH]cc-3n2)cc1C	0.29	1.57	121	213			
Cc1ccc(-c2nc3cc[nH]cc-3n2)cc1	-0.04	0.96	97	196			
COc1cccc(-c2nc3cc[nH]cc-3n2)c1	0.21	1.58	115	214			
COc1cc(OCc2ccccc2)ccc1-c1nc2cc[nH]cc-2n1	0.17	0.07	112	105			
COc1cc(Br)ccc1-c1nc2cc[nH]cc-2n1	0.47	1.04	134	175			
COc1cc(OC)cc(-c2nc3cc[nH]cc-3n2)c1	0.21	1.1	115	179			
COc1cccc(-c2nc3cc[nH]cc-3n2)c1OC	0.03	-0.14	102	90			
COc1ccc(-c2nc3cc[nH]cc-3n2)c(OCCCSC)c1	0.25	0.41	118	129			
COc1cc(-c2nc3cc[nH]cc-3n2)ccc1[S+](C)[O-] (stereo unspecified)	0.15	0.75	111	154			
N#Cc1ccc(-c2nc3ccncc3[nH]2)cc1	0.16	0.89	112	164			
COc1cc(OC)c(-c2nc3cc[nH]cc-3n2)cc1OC	0.12	0.4	108	129			
COc1ccc(-c2nc3cc[nH]cc-3n2)c(OCC[S+]([O-])c2ccccc2)c1 (stereo unspecified)	0.1	-0.05	107	96			
c1ccc(-c2nc3ccccc3[nH]2)cc1	0.07	0.47	105	134			
COc1ccccc1-c1nc2cc[nH]cc-2n1	0.28	1.38	120	200			
